From the supplement of paper PMC13207355

What was measured:
Details in all cases: exposure time: 72 h
E13 [1] = patient-derived glioblastoma stem cells of classical subtype; assay: surviving fraction (nuclei count normalised to DMSO); higher = more cells surviving (less toxic)
E21 [2] = patient-derived glioblastoma stem cells of mesenchymal subtype; assay: as above
E28 [3] = patient-derived glioblastoma stem cells of classical subtype; assay: as above
E31 [4] = patient-derived glioblastoma stem cells of proneural subtype; assay: as above
E34 [5] = patient-derived glioblastoma stem cells of proneural subtype; assay: as above
E57 [6] = patient-derived glioblastoma stem cells of mesenchymal subtype; assay: as above
FT3469 [7] = normal neural stem cell line; assay: as above
E13 [8] = assay: phenotypic distance (Euclidean, principal components) from DMSO controls (arbitrary units); higher = stronger morphological change
E21 [9] = assay: as above
E28 [10] = assay: as above
E31 [11] = assay: as above
E34 [12] = assay: as above
E57 [13] = assay: as above
FT3469 [14] = assay: as above
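Throughout, for phenotypic distance (Euclidean, principal components) from DMSO controls: cell Painting imaging in 384-well plates, CellProfiler features reduced to at least 20 principal components, Euclidean distance versus same-plate DMSO vehicle wells (0.1% v/v), median over six images per well.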
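Throughout, for surviving fraction (nuclei count normalised to DMSO): nuclei counted by high-content imaging of Hoechst-stained cells in laminin-coated 384-well plates, relative to 0.1% DMSO vehicle wells, with staurosporine as cell-death control.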

OCCN1CCN(CCCN2c3ccccc3Sc3ccc(Cl)cc32)CC1 [Perphenazine]
Details | phenotypic distance | surviving fraction
E13 [1], 4.1 nM | – | 0.93
E13 [1], 12.3 nM | – | 0.94
E13 [1], 37 nM | – | 0.849
E13 [1], 111.1 nM | – | 0.98
E13 [1], 333.3 nM | – | 0.964
E13 [1], 1000 nM | – | 1.05
E13 [1], 3000 nM | – | 0.837
E13 [8], 4.1 nM | 2.64 | –
E13 [8], 12.3 nM | 2.33 | –
E13 [8], 37 nM | 3.22 | –
E13 [8], 111.1 nM | 0.78 | –
E13 [8], 333.3 nM | 1.14 | –
E13 [8], 1000 nM | 3.07 | –
E13 [8], 3000 nM | 3.61 | –
E21 [2], 4.1 nM | – | 0.925
E21 [2], 12.3 nM | – | 1.06
E21 [2], 37 nM | – | 1.03
E21 [2], 111.1 nM | – | 1.05
E21 [2], 333.3 nM | – | 1.11
E21 [2], 1000 nM | – | 0.954
E21 [2], 3000 nM | – | 0.73
E21 [9], 4.1 nM | 0.988 | –
E21 [9], 12.3 nM | 0.761 | –
E21 [9], 37 nM | 0.693 | –
E21 [9], 111.1 nM | 1.08 | –
E21 [9], 333.3 nM | 0.995 | –
E21 [9], 1000 nM | 0.917 | –
E21 [9], 3000 nM | 2.66 | –
E28 [3], 4.1 nM | – | 1.09
E28 [3], 12.3 nM | – | 1.12
E28 [3], 37 nM | – | 1.07
E28 [3], 111.1 nM | – | 1.19
E28 [3], 333.3 nM | – | 0.953
E28 [3], 1000 nM | – | 1.09
E28 [3], 3000 nM | – | 0.848
E28 [10], 4.1 nM | 0.747 | –
E28 [10], 12.3 nM | 0.879 | –
E28 [10], 37 nM | 0.787 | –
E28 [10], 111.1 nM | 0.725 | –
E28 [10], 333.3 nM | 0.749 | –
E28 [10], 1000 nM | 0.938 | –
E28 [10], 3000 nM | 1.93 | –
E31 [4], 4.1 nM | – | 0.97
E31 [4], 12.3 nM | – | 1.07
E31 [4], 37 nM | – | 1.08
E31 [4], 111.1 nM | – | 1.14
E31 [4], 333.3 nM | – | 1.18
E31 [4], 1000 nM | – | 1.24
E31 [4], 3000 nM | – | 0.912
E31 [11], 4.1 nM | 1.23 | –
E31 [11], 12.3 nM | 0.866 | –
E31 [11], 37 nM | 0.873 | –
E31 [11], 111.1 nM | 1.86 | –
E31 [11], 333.3 nM | 1.75 | –
E31 [11], 1000 nM | 2.15 | –
E31 [11], 3000 nM | 3.18 | –
E34 [5], 4.1 nM | – | 0.951
E34 [5], 12.3 nM | – | 1.05
E34 [5], 37 nM | – | 1.1
E34 [5], 111.1 nM | – | 1.05
E34 [5], 333.3 nM | – | 0.994
E34 [5], 1000 nM | – | 1.19
E34 [5], 3000 nM | – | 0.986
E34 [12], 4.1 nM | 1.05 | –
E34 [12], 12.3 nM | 0.866 | –
E34 [12], 37 nM | 0.902 | –
E34 [12], 111.1 nM | 2.15 | –
E34 [12], 333.3 nM | 1.04 | –
E34 [12], 1000 nM | 1.51 | –
E34 [12], 3000 nM | 1.42 | –
E57 [6], 4.1 nM | – | 0.964
E57 [6], 12.3 nM | – | 0.957
E57 [6], 37 nM | – | 1
E57 [6], 111.1 nM | – | 1.1
E57 [6], 333.3 nM | – | 1.15
E57 [6], 1000 nM | – | 1.12
E57 [6], 3000 nM | – | 1.13
E57 [13], 4.1 nM | 1.04 | –
E57 [13], 12.3 nM | 0.836 | –
E57 [13], 37 nM | 0.782 | –
E57 [13], 111.1 nM | 0.979 | –
E57 [13], 333.3 nM | 0.789 | –
E57 [13], 1000 nM | 1.66 | –
E57 [13], 3000 nM | 2.41 | –
FT3469 [7], 4.1 nM | – | 1.11
FT3469 [7], 12.3 nM | – | 0.955
FT3469 [7], 37 nM | – | 1.01
FT3469 [7], 111.1 nM | – | 1.04
FT3469 [7], 333.3 nM | – | 0.866
FT3469 [7], 1000 nM | – | 0.938
FT3469 [7], 3000 nM | – | 1.03
FT3469 [14], 4.1 nM | 0.72 | –
FT3469 [14], 12.3 nM | 0.971 | –
FT3469 [14], 37 nM | 0.546 | –
FT3469 [14], 111.1 nM | 0.602 | –
FT3469 [14], 333.3 nM | 0.84 | –
FT3469 [14], 1000 nM | 0.79 | –
FT3469 [14], 3000 nM | 1.58 | –

COc1cc2c(c(OC)c1OC)-c1ccc(OC)c(=O)cc1[C@@H](NC(C)=O)CC2 [Colchicine]
Details | phenotypic distance | surviving fraction
E13 [1], 4.1 nM | – | 0.247
E13 [1], 12.3 nM | – | 0.187
E13 [1], 37 nM | – | 0.165
E13 [1], 111.1 nM | – | 0.14
E13 [1], 333.3 nM | – | 0.151
E13 [1], 1000 nM | – | 0.152
E13 [1], 3000 nM | – | 0.178
E13 [8], 4.1 nM | 5.49 | –
E13 [8], 12.3 nM | 5.12 | –
E13 [8], 37 nM | 6.59 | –
E13 [8], 111.1 nM | 7.17 | –
E13 [8], 333.3 nM | 8.24 | –
E13 [8], 1000 nM | 7.42 | –
E13 [8], 3000 nM | 7.88 | –
E21 [2], 4.1 nM | – | 0.171
E21 [2], 12.3 nM | – | 0.125
E21 [2], 37 nM | – | 0.133
E21 [2], 111.1 nM | – | 0.137
E21 [2], 333.3 nM | – | 0.136
E21 [2], 1000 nM | – | 0.135
E21 [2], 3000 nM | – | 0.139
E21 [9], 4.1 nM | 5.8 | –
E21 [9], 12.3 nM | 5.88 | –
E21 [9], 37 nM | 5.7 | –
E21 [9], 111.1 nM | 5.45 | –
E21 [9], 333.3 nM | 5.2 | –
E21 [9], 1000 nM | 5.35 | –
E21 [9], 3000 nM | 4.96 | –
E28 [3], 4.1 nM | – | 0.546
E28 [3], 12.3 nM | – | 0.244
E28 [3], 37 nM | – | 0.335
E28 [3], 111.1 nM | – | 0.295
E28 [3], 333.3 nM | – | 0.291
E28 [3], 1000 nM | – | 0.211
E28 [3], 3000 nM | – | 0.207
E28 [10], 4.1 nM | 2.89 | –
E28 [10], 12.3 nM | 3.81 | –
E28 [10], 37 nM | 4.44 | –
E28 [10], 111.1 nM | 4.55 | –
E28 [10], 333.3 nM | 5.48 | –
E28 [10], 1000 nM | 4.51 | –
E28 [10], 3000 nM | 5.17 | –
E31 [4], 4.1 nM | – | 0.131
E31 [4], 12.3 nM | – | 0.0944
E31 [4], 37 nM | – | 0.0551
E31 [4], 111.1 nM | – | 0.0362
E31 [4], 333.3 nM | – | 0.0614
E31 [4], 1000 nM | – | 0.0519
E31 [4], 3000 nM | – | 0.0425
E31 [11], 4.1 nM | 4.44 | –
E31 [11], 12.3 nM | 6.48 | –
E31 [11], 37 nM | 9.95 | –
E31 [11], 111.1 nM | 12.2 | –
E31 [11], 333.3 nM | 11.7 | –
E31 [11], 1000 nM | 10.4 | –
E31 [11], 3000 nM | 12.5 | –
E34 [5], 4.1 nM | – | 0.406
E34 [5], 12.3 nM | – | 0.368
E34 [5], 37 nM | – | 0.389
E34 [5], 111.1 nM | – | 0.284
E34 [5], 333.3 nM | – | 0.318
E34 [5], 1000 nM | – | 0.245
E34 [5], 3000 nM | – | 0.267
E34 [12], 4.1 nM | 3.32 | –
E34 [12], 12.3 nM | 7.33 | –
E34 [12], 37 nM | 9.15 | –
E34 [12], 111.1 nM | 9.46 | –
E34 [12], 333.3 nM | 7.78 | –
E34 [12], 1000 nM | 7.61 | –
E34 [12], 3000 nM | 10.5 | –
E57 [6], 4.1 nM | – | 0.21
E57 [6], 12.3 nM | – | 0.0932
E57 [6], 37 nM | – | 0.105
E57 [6], 111.1 nM | – | 0.119
E57 [6], 333.3 nM | – | 0.0902
E57 [6], 1000 nM | – | 0.0976
E57 [6], 3000 nM | – | 0.0829
E57 [13], 4.1 nM | 4.26 | –
E57 [13], 12.3 nM | 4.49 | –
E57 [13], 37 nM | 4.46 | –
E57 [13], 111.1 nM | 4.55 | –
E57 [13], 333.3 nM | 4.46 | –
E57 [13], 1000 nM | 4.61 | –
E57 [13], 3000 nM | 5.19 | –
FT3469 [7], 4.1 nM | – | 0.487
FT3469 [7], 12.3 nM | – | 0.468
FT3469 [7], 37 nM | – | 0.367
FT3469 [7], 111.1 nM | – | 0.301
FT3469 [7], 333.3 nM | – | 0.263
FT3469 [7], 1000 nM | – | 0.335
FT3469 [7], 3000 nM | – | 0.229
FT3469 [14], 4.1 nM | 3.51 | –
FT3469 [14], 12.3 nM | 4.18 | –
FT3469 [14], 37 nM | 5.37 | –
FT3469 [14], 111.1 nM | 5.29 | –
FT3469 [14], 333.3 nM | 4.34 | –
FT3469 [14], 1000 nM | 5.12 | –
FT3469 [14], 3000 nM | 4.51 | –
